According to patent publication US9873709B2 (priority 2013, dated 2018):

These compounds were tested on JAK1-dependent STAT6 phosphorylation downstream of IL-13 stimulation in TF-1 human erythroleukemia cells (assay: cells). Conditions: TF-1, read-out: IL-13-pSTAT6 IC50.
In the case of `CCOC(=O)N1CC=C(c2cccn3nc(Nc4ccc(C(=O)NCCC5CCCN5)cc4)nc23)CC1` (centres unmarked) [Example 2-362, ethyl 4-[2-[4-(2-pyrrolidin-2-ylethylcarbamoyl)anilino]-[1,2,4]triazolo[1,5-a]pyridin-8-yl]-3,6-dihydro-2H-pyridine-1-carboxylate], the IC50 is reported as 229 nM.
In the case of `CCOC(=O)N1CC=C(c2cccn3nc(Nc4ccc(C(=O)N5CC6(CCNC6)C5)cc4)nc23)CC1` [Example 2-372, ethyl 4-[2-[4-(2,7-diazaspiro[3.4]octane-2-carbonyl)anilino]-[1,2,4]triazolo[1,5-a]pyridin-8-yl]-3,6-dihydro-2H-pyridine-1-carboxylate], the IC50 is reported as 296 nM.
`CCOC(=O)N1CC=C(c2cccn3nc(Nc4ccc(C(=O)N(C)CCN)cc4)nc23)CC1` [Example 2-374, ethyl 4-[2-[4-[2-aminoethyl(methyl)carbamoyl]anilino]-[1,2,4]triazolo[1,5-a]pyridin-8-yl]-3,6-dihydro-2H-pyridine-1-carboxylate] was tested, and the IC50 was 62.5 nM.
In the case of `O=C(CCC(F)(F)F)N1CC=C(c2cccn3nc(Nc4ccc(C(=O)N5CCC6(CCCN6)C5)cc4)nc23)CC1` (centres unmarked) [Example 2-377, 1-[4-[2-[4-(1,7-diazaspiro[4.4]nonane-7-carbonyl)anilino]-[1,2,4]triazolo[1,5-a]pyridin-8-yl]-3,6-dihydro-2H-pyridin-1-yl]-4,4,4-trifluoro-butan-1-one], the IC50 is reported as 55.5 nM.
With `O=C(CCC(F)(F)F)N1CC=C(c2cccn3nc(Nc4ccc(C(=O)N5CCC6(CCCCN6)C5)cc4)nc23)CC1` (centres unmarked) [Example 2-378, 1-[4-[2-[4-(2,6-diazaspiro[4.5]decane-2-carbonyl)anilino]-[1,2,4]triazolo[1,5-a]pyridin-8-yl]-3,6-dihydro-2H-pyridin-1-yl]-4,4,4-trifluoro-butan-1-one] the IC50 was 238 nM.
`O=C(CCC(F)(F)F)N1CC=C(c2cccn3nc(Nc4ccc(C(=O)N5CCC6(CNC6)C5)cc4)nc23)CC1` [Example 2-379, 1-[4-[2-[4-(2,6-diazaspiro[3,4]octane-6-carbonyl)anilino]-[1,2,4]triazolo[1,5-a]pyridin-8-yl]-3,6-dihydro-2H-pyridin-1-yl]-4,4,4-trifluoro-butan-1-one] was tested, and the IC50 was 282 nM.
Work on `O=C(CCC(F)(F)F)N1CC=C(c2cccn3nc(Nc4ccc(C(=O)N5CCC6(CC5)CNCCO6)cc4)nc23)CC1` [Example 2-380, 4,4,4-trifluoro-1-[4-[2-[4-(1-oxa-4,9-diazaspiro[5.5]undecane-9-carbonyl)anilino]-[1,2,4]triazolo[1,5-a]pyridin-8-yl]-3,6-dihydro-2H-pyridin-1-yl]butan-1-one] yielded an IC50 of 38.4 nM.
In the case of `O=C(CCC(F)(F)F)N1CC=C(c2cccn3nc(Nc4ccc(C(=O)N5CCCC6(CCNCC6)C5)cc4)nc23)CC1` [Example 2-382, 1-[4-[2-[4-(2,9-diazaspiro[5.5]undecane-2-carbonyl)anilino]-[1,2,4]triazolo[1,5-a]pyridin-8-yl]-3,6-dihydro-2H-pyridin-1-yl]-4,4,4-trifluoro-butan-1-one], the IC50 is reported as 376 nM.
In the case of `O=C(CCC(F)(F)F)N1CC=C(c2cccn3nc(Nc4ccc(C(=O)N5CCCC6(CCCCN6)C5)cc4)nc23)CC1` (centres unmarked) [Example 2-383, 1-[4-[2-[4-(1,8-diazaspiro[5.5]undecane-8-carbonyl)anilino]-[1,2,4]triazolo[1,5-a]pyridin-8-yl]-3,6-dihydro-2H-pyridin-1-yl]-4,4,4-trifluoro-butan-1-one], the IC50 is reported as 9 nM.
Compound `O=C(CCC(F)(F)F)N1CC=C(c2cccn3nc(Nc4ccc(C(=O)N5CCCC6(CCCN6)CC5)cc4)nc23)CC1` (centres unmarked) [Example 2-384, 1-[4-[2-[4-(1,9-diazaspiro[4.6]undecane-9-carbonyl)anilino]-[1,2,4]triazolo[1,5-a]pyridin-8-yl]-3,6-dihydro-2H-pyridin-1-yl]-4,4,4-trifluoro-butan-1-one] has an IC50 of 93 nM.
Work on `O=C(NCC1CCCCN1)c1ccc(Nc2nc3c(C4=CCN(C(=O)CCC(F)(F)F)CC4)cccn3n2)cc1` (centres unmarked) [Example 2-385, N-(2-piperidylmethyl)-4-[[8-[1-(4,4,4-trifluorobutanoyl)-3,6-dihydro-2H-pyridin-4-yl]-[1,2,4]triazolo[1,5-a]pyridin-2-yl]amino]benzamide] yielded an IC50 of 174 nM.
`O=C(CCC(F)(F)F)N1CC=C(c2cccn3nc(Nc4ccc(C(=O)N5CCC6CNCC65)cc4)nc23)CC1` (centres unmarked) [Example 2-386, 1-[4-[2-[4-(3,3a,4,5,6,6a-hexahydro-2H-pyrrolo[2,3-c]pyrrole-1-carbonyl)anilino]-[1,2,4]triazolo[1,5-a]pyridin-8-yl]-3,6-dihydro-2H-pyridin-1-yl]-4,4,4-trifluoro-butan-1-one] showed an IC50 of 155 nM.
With `O=C(CCC(F)(F)F)N1CC=C(c2cccn3nc(Nc4ccc(C(=O)N5C[C@@H]6CCN[C@@H]6C5)cc4)nc23)CC1` [Example 2-387, 1-[4-[2-[4-[(3aS,6aS)-2,3,3a,4,6,6a-hexahydro-1H-pyrrolo[2,3-c]pyrrole-5-carbonyl]anilino]-[1,2,4]triazolo[1,5-a]pyridin-8-yl]-3,6-dihydro-2H-pyridin-1-yl]-4,4,4-trifluoro-butan-1-one] the IC50 was 147 nM.
Compound `O=C(NCC1CC12CCNCC2)c1ccc(Nc2nc3c(C4=CCN(C(=O)CCC(F)(F)F)CC4)cccn3n2)cc1` (centres unmarked) [Example 2-388, N-(6-azaspiro[2.5]octan-2-ylmethyl)-4-[[8-[1-(4,4,4-trifluorobutanoyl)-3,6-dihydro-2H-pyridin-4-yl]-[1,2,4]triazolo[1,5-a]pyridin-2-yl]amino]benzamide] has an IC50 of 141 nM.
`CN1CCCC(CN(C)C(=O)c2ccc(Nc3nc4c(C5=CCN(C(=O)CCC(F)(F)F)CC5)cccn4n3)cc2)C1` (centres unmarked) [Example 2-389, N-methyl-N-[(1-methyl-3-piperidyl)methyl]-4-[[8-[1-(4,4,4-trifluorobutanoyl)-3,6-dihydro-2H-pyridin-4-yl]-[1,2,4]triazolo[1,5-a]pyridin-2-yl]amino]benzamide] was tested, and the IC50 was 12.6 nM.
`O=C(CCC(F)(F)F)N1CC=C(c2cccn3nc(Nc4ccc(C(=O)N5CCCC(O)(CN6CCCC6)CC5)cc4)nc23)CC1` (centres unmarked) [Example 2-390, 4,4,4-trifluoro-1-[4-[2-[4-[4-hydroxy-4-(pyrrolidin-1-ylmethyl)azepane-1-carbonyl]anilino]-[1,2,4]triazolo[1,5-a]pyridin-8-yl]-3,6-dihydro-2H-pyridin-1-yl]butan-1-one] gave an IC50 of 178 nM.
`CN1CCC2(CC1)CN(C(=O)c1ccc(Nc3nc4c(C5=CCN(C(=O)CCC(F)(F)F)CC5)cccn4n3)cc1)C2` [Example 2-391, 4,4,4-trifluoro-1-[4-[2-[4-(7-methyl-2,7-diazaspiro[3.5]nonane-2-carbonyl)anilino]-[1,2,4]triazolo[1,5-a]pyridin-8-yl]-3,6-dihydro-2H-pyridin-1-yl]butan-1-one] showed an IC50 of 5.7 nM.
`O=C(CCC(F)(F)F)N1CC=C(c2cccn3nc(Nc4ccc(C(=O)N5CC6(CNC6)C5)cc4)nc23)CC1` [Example 2-392, 1-[4-[2-[4-(2,6-diazaspiro[3.3]heptane-2-carbonyl)anilino]-[1,2,4]triazolo[1,5-a]pyridin-8-yl]-3,6-dihydro-2H-pyridin-1-yl]-4,4,4-trifluoro-butan-1-one] was tested, and the IC50 was 217 nM.
With `CN1CCN(C2CCN(C(=O)c3ccc(Nc4nc5c(C6=CCN(C(=O)CCC(F)(F)F)CC6)cccn5n4)cc3)CC2)CC1` [Example 2-393, 4,4,4-trifluoro-1-[4-[2-[4-[4-(4-methylpiperazin-1-yl)piperidine-1-carbonyl]anilino]-[1,2,4]triazolo[1,5-a]pyridin-8-yl]-3,6-dihydro-2H-pyridin-1-yl]butan-1-one] the IC50 was 23.4 nM.
For `O=C(CCC(F)(F)F)N1CC=C(c2cccn3nc(Nc4ccc(C(=O)N5CCN(Cc6cccnc6)CC5)cc4)nc23)CC1` [Example 2-394, 4,4,4-trifluoro-1-[4-[2-[4-[4-(3-pyridylmethyl)piperazine-1-carbonyl]anilino]-[1,2,4]triazolo[1,5-a]pyridin-8-yl]-3,6-dihydro-2H-pyridin-1-yl]butan-1-one], the IC50 was 4 nM.
`O=C(CCC(F)(F)F)N1CC=C(c2cccn3nc(Nc4ccc(C(=O)N5CCN(c6cccnc6)CC5)cc4)nc23)CC1` [Example 2-395, 4,4,4-trifluoro-1-[4-[2-[4-[4-(3-pyridyl)piperazine-1-carbonyl]anilino]-[1,2,4]triazolo[1,5-a]pyridin-8-yl]-3,6-dihydro-2H-pyridin-1-yl]butan-1-one] was tested, and the IC50 was 4.6 nM.
`O=C(CCC(F)(F)F)N1CC=C(c2cccn3nc(Nc4ccc(C(=O)N5CCCC5Cc5ccccn5)cc4)nc23)CC1` (centres unmarked) [Example 2-396, 4,4,4-trifluoro-1-[4-[2-[4-[2-(2-pyridylmethyl)pyrrolidine-1-carbonyl]anilino]-[1,2,4]triazolo[1,5-a]pyridin-8-yl]-3,6-dihydro-2H-pyridin-1-yl]butan-1-one] gave an IC50 of 5.4 nM.
With `O=C(CCC(F)(F)F)N1CC=C(c2cccn3nc(Nc4ccc(C(=O)N5CCN(c6ccccn6)CC5)cc4)nc23)CC1` [Example 2-397, 4,4,4-trifluoro-1-[4-[2-[4-[4-(2-pyridyl)piperazine-1-carbonyl]anilino]-[1,2,4]triazolo[1,5-a]pyridin-8-yl]-3,6-dihydro-2H-pyridin-1-yl]butan-1-one] the IC50 was 20.2 nM.
In the case of `O=C(CCC(F)(F)F)N1CC=C(c2cccn3nc(Nc4ccc(C(=O)N5CCN(CC6CC6)CC5)cc4)nc23)CC1` [Example 2-398, 1-[4-[2-[4-[4-(cyclopropylmethyl)piperazine-1-carbonyl]anilino]-[1,2,4]triazolo[1,5-a]pyridin-8-yl]-3,6-dihydro-2H-pyridin-1-yl]-4,4,4-trifluoro-butan-1-one], the IC50 is reported as 8.6 nM.
Compound `CC(CN(C)C)NC(=O)c1ccc(Nc2nc3c(C4=CCN(C(=O)CCC(F)(F)F)CC4)cccn3n2)cc1` (centres unmarked) [Example 2-399, N-[2-(dimethylamino)-1-methyl-ethyl]-4-[[8-[1-(4,4,4-trifluorobutanoyl)-3,6-dihydro-2H-pyridin-4-yl]-[1,2,4]triazolo[1,5-a]pyridin-2-yl]amino]benzamide] has an IC50 of 12.1 nM.
With `CCCN1CCC(N(C(=O)c2ccc(Nc3nc4c(C5=CCN(C(=O)CCC(F)(F)F)CC5)cccn4n3)cc2)C2CC2)CC1` [Example 2-400, N-cyclopropyl-N-(1-propyl-4-piperidyl)-4-[[8-[1-(4,4,4-trifluorobutanoyl)-3,6-dihydro-2H-pyridin-4-yl]-[1,2,4]triazolo[1,5-a]pyridin-2-yl]amino]benzamide] the IC50 was 6.8 nM.
